Tested on: MV-4-11 cells
Assay: Gene expression microarray analysis (Affymetrix PrimeView) and GSEA
Type: cell-based, human
Design: RFU PODN (11730768_x_at) / Fold change /veh PODN (11730768_x_at) / RFU LINC00158 (11744669_a_at) / Fold change /veh LINC00158 (11744669_a_at) / RFU DUSP10 (11751237_a_at) / Fold change /veh DUSP10 (11751237_a_at) / RFU ID3 (11757404_x_at) / Fold change /veh ID3 (11757404_x_at) / RFU PLEKHG5 (11737974_s_at) / Fold change /veh PLEKHG5 (11737974_s_at) / RFU LRRC4B (11730491_at) / Fold change /veh LRRC4B (11730491_at) / RFU GIMAP4 (11747438_a_at) / Fold change /veh GIMAP4 (11747438_a_at) / RFU KRT8 (11758183_x_at) / Fold change /veh KRT8 (11758183_x_at) / RFU CNN1 (11734310_a_at) / Fold change /veh CNN1 (11734310_a_at) / RFU VPS37D (11726825_at) / Fold change /veh VPS37D (11726825_at) / RFU C10orf10 (11716522_x_at) / Fold change /veh C10orf10 (11716522_x_at) / RFU KIR2DL2 /// KIR2DL4 /// KIR2DL5A /// KIR2DL5B /// KIR2DS1 /// KIR2DS2 /// KIR2DS3 /// KIR2DS4 /// KIR3DL3 /// KIR3DL3 /// KIR3DS1 (11738374_at) / Fold change /veh KIR2DL2 /// KIR2DL4 /// KIR2DL5A /// KIR2DL5B /// KIR2DS1 /// KIR2DS2 /// KIR2DS3 /// KIR2DS4 /// KIR3DL3 /// KIR3DL3 /// KIR3DS1 (11738374_at) / RFU C1QL1 (11718748_at) / Fold change /veh C1QL1 (11718748_at) / RFU TMPRSS4 (11747572_a_at) / Fold change /veh TMPRSS4 (11747572_a_at) / RFU HAMP (11756126_x_at) / Fold change /veh HAMP (11756126_x_at) / RFU RNFT2 (11725882_a_at) / Fold change /veh RNFT2 (11725882_a_at) / RFU NR4A2 (11747474_a_at) / Fold change /veh NR4A2 (11747474_a_at) / RFU ABCC12 (11746883_a_at) / Fold change /veh ABCC12 (11746883_a_at) / RFU TMEM136 (11760407_x_at) / Fold change /veh TMEM136 (11760407_x_at) / RFU CLDN22 /// WWC2 (11732394_at) / Fold change /veh CLDN22 /// WWC2 (11732394_at) / RFU HLA-DPB1 (11760878_x_at) / Fold change /veh HLA-DPB1 (11760878_x_at) / RFU SPINT1 (11716480_a_at) / Fold change /veh SPINT1 (11716480_a_at) / RFU GAP43 (11754022_s_at) / Fold change /veh GAP43 (11754022_s_at) / RFU A4GNT (11735810_at) / Fold change /veh A4GNT (11735810_at) / RFU PRB3 (11715151_x_at) / Fold change /veh PRB3 (11715151_x_at) / RFU TUBB4B (11761932_at) / Fold change /veh TUBB4B (11761932_at) / RFU CAPN14 (11732068_a_at) / Fold change /veh CAPN14 (11732068_a_at) / RFU TMCC2 (11721928_a_at) / Fold change /veh TMCC2 (11721928_a_at) / RFU IRGQ (11745062_a_at) / Fold change /veh IRGQ (11745062_a_at) / RFU FAM174B (11720279_a_at) / Fold change /veh FAM174B (11720279_a_at) / RFU TMPRSS4 (11748680_a_at) / Fold change /veh TMPRSS4 (11748680_a_at) / RFU FAM212B (11763350_a_at) / Fold change /veh FAM212B (11763350_a_at) / RFU PLEKHG5 (11743358_a_at) / Fold change /veh PLEKHG5 (11743358_a_at) / RFU ZSCAN30 (11745921_a_at) / Fold change /veh ZSCAN30 (11745921_a_at) / RFU CMKLR1 (11741424_a_at) / Fold change /veh CMKLR1 (11741424_a_at) / RFU LOC101060620 /// MAPK8IP1 (11723275_at) / Fold change /veh LOC101060620 /// MAPK8IP1 (11723275_at) / RFU SPTSSB (11747773_x_at) / Fold change /veh SPTSSB (11747773_x_at) / RFU PRSS12 (11739890_at) / Fold change /veh PRSS12 (11739890_at) / RFU BIN1 (11741810_x_at) / Fold change /veh BIN1 (11741810_x_at) / RFU WNT11 (11732464_a_at) / Fold change /veh WNT11 (11732464_a_at) / RFU C10orf10 (11716521_a_at) / Fold change /veh C10orf10 (11716521_a_at) / RFU C5orf56 (11738089_at) / Fold change /veh C5orf56 (11738089_at) / RFU CYB561 (11721691_x_at) / Fold change /veh CYB561 (11721691_x_at) / RFU ANKRD19P (11752326_a_at) / Fold change /veh ANKRD19P (11752326_a_at) / RFU OR2T12 /// OR2T33 /// OR2T8 (11738714_s_at) / Fold change /veh OR2T12 /// OR2T33 /// OR2T8 (11738714_s_at) / RFU VCAN (11748164_a_at) / Fold change /veh VCAN (11748164_a_at) / RFU JSRP1 (11732532_at) / Fold change /veh JSRP1 (11732532_at) / RFU KRTAP10-11 (11738290_x_at) / Fold change /veh KRTAP10-11 (11738290_x_at) / RFU MYO3A (11730013_a_at) / Fold change /veh MYO3A (11730013_a_at) / RFU EBF3 (11725865_a_at) / Fold change /veh EBF3 (11725865_a_at) / RFU CAMK2N1 (11719241_x_at) / Fold change /veh CAMK2N1 (11719241_x_at) / RFU C5orf56 (11738088_a_at) / Fold change /veh C5orf56 (11738088_a_at) / RFU OLFML3 (11715873_a_at) / Fold change /veh OLFML3 (11715873_a_at) / RFU LOC100653217 /// NTM (11731650_a_at) / Fold change /veh LOC100653217 /// NTM (11731650_a_at) / RFU MAPK11 (11762145_a_at) / Fold change /veh MAPK11 (11762145_a_at) / RFU FIZ1 (11724087_x_at) / Fold change /veh FIZ1 (11724087_x_at) / RFU OASL (11726364_x_at) / Fold change /veh OASL (11726364_x_at) / RFU SOX15 (11748057_x_at) / Fold change /veh SOX15 (11748057_x_at) / RFU CD79A (11719716_a_at) / Fold change /veh CD79A (11719716_a_at) / RFU HIST1H1D (11736915_at) / Fold change /veh HIST1H1D (11736915_at) / RFU CASKIN2 (11723855_a_at) / Fold change /veh CASKIN2 (11723855_a_at) / RFU LOC730098 (11760151_x_at) / Fold change /veh LOC730098 (11760151_x_at) / RFU OR4N2 (11742367_at) / Fold change /veh OR4N2 (11742367_at) / RFU PRRT2 (11749266_a_at) / Fold change /veh PRRT2 (11749266_a_at) / RFU SNX32 (11753110_a_at) / Fold change /veh SNX32 (11753110_a_at) / RFU CDHR5 (11726645_a_at) / Fold change /veh CDHR5 (11726645_a_at) / RFU RCAN1 (11760418_a_at) / Fold change /veh RCAN1 (11760418_a_at) / RFU FAM167A (11723789_a_at) / Fold change /veh FAM167A (11723789_a_at) / RFU FAM26E (11764081_at) / Fold change /veh FAM26E (11764081_at) / RFU ISYNA1 (11749810_s_at) / Fold change /veh ISYNA1 (11749810_s_at) / RFU ACY1 (11761880_at) / Fold change /veh ACY1 (11761880_at) / RFU 11764098_at / Fold change /veh 11764098_at / RFU SAMD14 (11745864_x_at) / Fold change /veh SAMD14 (11745864_x_at) / RFU NPB (11741838_a_at) / Fold change /veh NPB (11741838_a_at) / RFU TMPRSS6 (11731388_a_at) / Fold change /veh TMPRSS6 (11731388_a_at) / RFU KRTAP10-2 (11738614_at) / Fold change /veh KRTAP10-2 (11738614_at) / RFU ARHGAP8 /// PRR5-ARHGAP8 (11727945_x_at) / Fold change /veh ARHGAP8 /// PRR5-ARHGAP8 (11727945_x_at) / RFU KRTAP5-7 /// NADSYN1 (11734609_at) / Fold change /veh KRTAP5-7 /// NADSYN1 (11734609_at) / RFU RASL12 (11751679_a_at) / Fold change /veh RASL12 (11751679_a_at) / RFU CDKN2B (11736163_a_at) / Fold change /veh CDKN2B (11736163_a_at) / RFU PRF1 (11729649_at) / Fold change /veh PRF1 (11729649_at) / RFU, ZNF638 /// ZNF638-IT1 / Fold change vs veh, ZNF638 /// ZNF638-IT1 / RFU, PANK3 / Fold change vs veh, PANK3 / RFU, SH3YL1 / Fold change vs veh, SH3YL1 / RFU, ZEB2 / Fold change vs veh, ZEB2 / RFU, NRIP1 / Fold change vs veh, NRIP1 / RFU, PTTG1IP / Fold change vs veh, PTTG1IP / RFU, CAPN2 / Fold change vs veh, CAPN2 / RFU, MED14 / Fold change vs veh, MED14 / RFU, SNORA58 / Fold change vs veh, SNORA58 / RFU, C1orf63 / Fold change vs veh, C1orf63 / RFU, LRRFIP1 / Fold change vs veh, LRRFIP1 / RFU, NDUFAF7 / Fold change vs veh, NDUFAF7 / RFU, SLC12A2 / Fold change vs veh, SLC12A2 / RFU, IBTK / Fold change vs veh, IBTK / RFU, ESF1 / Fold change vs veh, ESF1 / Fold change vs veh, TMEM50B / RFU, TAOK1 / Fold change vs veh, TAOK1 / RFU, ACBD3 / Fold change vs veh, ACBD3 / RFU, TMA16 / Fold change vs veh, TMA16 / RFU, RWDD3 / Fold change vs veh, RWDD3 / RFU, BCAT1 / Fold change vs veh, BCAT1 / RFU, EDEM3 / Fold change vs veh, EDEM3 / RFU, TMEM33 / Fold change vs veh, TMEM33 / RFU, WDR75 / Fold change vs veh, WDR75 / RFU, AHCTF1 / Fold change vs veh, AHCTF1 / RFU, TFRC / Fold change vs veh, TFRC / RFU, ZDHHC17 / Fold change vs veh, ZDHHC17 / RFU, NOM1 / Fold change vs veh, NOM1 / RFU, ARL8B / Fold change vs veh, ARL8B / RFU, ZBTB11 / Fold change vs veh, ZBTB11 / RFU, TAMM41 / Fold change vs veh, TAMM41 / RFU, KIAA1704 /// LOC100996395 / Fold change vs veh, KIAA1704 /// LOC100996395 / RFU, ING1 / Fold change vs veh, ING1 / RFU, TRMT61B / Fold change vs veh, TRMT61B / RFU, FUBP3 / Fold change vs veh, FUBP3 / RFU, TP53 / Fold change vs veh, TP53 / RFU, TNKS2 / Fold change vs veh, TNKS2 / RFU, ZFP14 / Fold change vs veh, ZFP14 / RFU, ACTR2 / Fold change vs veh, ACTR2 / RFU, PPP3R1 / Fold change vs veh, PPP3R1 / RFU, PIK3R1 / Fold change vs veh, PIK3R1 / RFU, HNRNPA1 / Fold change vs veh, HNRNPA1 / RFU, RNF170 / Fold change vs veh, RNF170 / RFU, ZNF28 / Fold change vs veh, ZNF28 / RFU, RNGTT / Fold change vs veh, RNGTT / RFU, OGT / Fold change vs veh, OGT / RFU, BRD1 / Fold change vs veh, BRD1 / RFU, MARS / Fold change vs veh, MARS / RFU, ZNF655 / Fold change vs veh, ZNF655 / RFU, FAHD1 / Fold change vs veh, FAHD1 / RFU, BDP1 / Fold change vs veh, BDP1 / RFU, LRRCC1 / Fold change vs veh, LRRCC1 / RFU, ARID1A / Fold change vs veh, ARID1A / RFU, ZNF146 / Fold change vs veh, ZNF146 / RFU, ZNF330 / Fold change vs veh, ZNF330 / RFU, GPN3 / Fold change vs veh, GPN3 / RFU, C9orf123 / Fold change vs veh, C9orf123 / RFU, N4BP2L2 / Fold change vs veh, N4BP2L2 / RFU, ARFIP1 / Fold change vs veh, ARFIP1 / RFU, FAM179B / Fold change vs veh, FAM179B / RFU, BCL10 / Fold change vs veh, BCL10 / RFU, UHRF1BP1L / Fold change vs veh, UHRF1BP1L / RFU, BET1 / Fold change vs veh, BET1 / RFU, CNOT2 / Fold change vs veh, CNOT2 / RFU, ZNF268 / Fold change vs veh, ZNF268 / Fold change vs veh, ZNF507 / RFU, DGCR2 / Fold change vs veh, DGCR2 / RFU, WDSUB1 / Fold change vs veh, WDSUB1 / Fold change vs veh, HSP90B1 /// MIR3652 / RFU, ADSS / Fold change vs veh, ADSS / RFU, GK / Fold change vs veh, GK / RFU, ZNF148 / Fold change vs veh, ZNF148 / RFU, TAF9 / Fold change vs veh, TAF9 / RFU, SLC1A5 / Fold change vs veh, SLC1A5 / RFU, SLMO2 / Fold change vs veh, SLMO2 / RFU, ABCC4 / Fold change vs veh, ABCC4 / RFU, LOC101060439 /// RAP1B / Fold change vs veh, LOC101060439 /// RAP1B / RFU, RFX7 / Fold change vs veh, RFX7 / RFU, GTPBP10 / Fold change vs veh, GTPBP10 / RFU, CNEP1R1 / Fold change vs veh, CNEP1R1 / RFU, BIVM-ERCC5 /// ERCC5 / Fold change vs veh, BIVM-ERCC5 /// ERCC5 / RFU, ILF3 / Fold change vs veh, ILF3 / RFU 11762660_at / Fold change /veh 11762660_at / RFU VCAN (11757783_s_at) / Fold change /veh VCAN (11757783_s_at) / RFU DDX43 (11728927_at) / Fold change /veh DDX43 (11728927_at) / RFU KRT8 (11758188_x_at) / Fold change /veh KRT8 (11758188_x_at) / RFU NKD1 (11759106_at) / Fold change /veh NKD1 (11759106_at) / RFU SRD5A1 (11742802_a_at) / Fold change /veh SRD5A1 (11742802_a_at) / RFU TPSAB1 /// TPSB2 (11721975_s_at) / Fold change /veh TPSAB1 /// TPSB2 (11721975_s_at) / RFU GSTM3 (11746129_a_at) / Fold change /veh GSTM3 (11746129_a_at) / RFU IL23R (11737362_x_at) / Fold change /veh IL23R (11737362_x_at) / RFU TMEM51 (11727254_a_at) / Fold change /veh TMEM51 (11727254_a_at) / RFU PIWIL2 (11732686_x_at) / Fold change /veh PIWIL2 (11732686_x_at) / RFU ORM1 (11744905_x_at) / Fold change /veh ORM1 (11744905_x_at) / RFU CCDC152 (11743942_at) / Fold change /veh CCDC152 (11743942_at) / RFU ECM1 (11717891_a_at) / Fold change /veh ECM1 (11717891_a_at) / RFU IL23R (11748794_a_at) / Fold change /veh IL23R (11748794_a_at) / RFU TNFAIP8L3 (11732012_x_at) / Fold change /veh TNFAIP8L3 (11732012_x_at) / RFU MBOAT4 (11741988_at) / Fold change /veh MBOAT4 (11741988_at) / RFU 11764193_at / Fold change /veh 11764193_at / RFU TMEM53 (11763286_at) / Fold change /veh TMEM53 (11763286_at) / RFU MAGEB2 (11727129_at) / Fold change /veh MAGEB2 (11727129_at) / RFU TMEM200A (11744735_a_at) / Fold change /veh TMEM200A (11744735_a_at) / RFU CCDC152 (11751479_a_at) / Fold change /veh CCDC152 (11751479_a_at) / RFU FAM211A (11726209_a_at) / Fold change /veh FAM211A (11726209_a_at) / RFU RGS16 (11746705_a_at) / Fold change /veh RGS16 (11746705_a_at) / RFU VCAN (11755009_s_at) / Fold change /veh VCAN (11755009_s_at) / RFU RHOB (11743442_s_at) / Fold change /veh RHOB (11743442_s_at) / RFU RGS16 (11720943_a_at) / Fold change /veh RGS16 (11720943_a_at) / RFU RGS16 (11720944_at) / Fold change /veh RGS16 (11720944_at) / RFU, VPS4B / Fold change vs veh, VPS4B / RFU, CREB1 / Fold change vs veh, CREB1 / RFU, DNAJC13 / Fold change vs veh, DNAJC13 / RFU, GNAQ / Fold change vs veh, GNAQ / RFU, CDK5R1 / Fold change vs veh, CDK5R1 / RFU, ZRANB3 / Fold change vs veh, ZRANB3 / RFU, CUL4A / Fold change vs veh, CUL4A / RFU, CCNY / Fold change vs veh, CCNY / RFU, UFL1 / Fold change vs veh, UFL1 / RFU, COG3 / Fold change vs veh, COG3 / RFU, DIAPH2 / Fold change vs veh, DIAPH2 / RFU, SKA2 / Fold change vs veh, SKA2 / RFU, AFF3 / Fold change vs veh, AFF3 / RFU, LMF1 / Fold change vs veh, LMF1 / RFU, IPO11 / Fold change vs veh, IPO11 / RFU, DFFB / Fold change vs veh, DFFB / RFU, FOXP1 / Fold change vs veh, FOXP1 / RFU, CARD8 / Fold change vs veh, CARD8 / RFU, STRN3 / Fold change vs veh, STRN3 / RFU, ADK / Fold change vs veh, ADK / RFU, RASSF2 / Fold change vs veh, RASSF2 / RFU, WIPF1 / Fold change vs veh, WIPF1 / RFU, LARP1B / Fold change vs veh, LARP1B / RFU, RASA1 / Fold change vs veh, RASA1 / RFU, RB1 / Fold change vs veh, RB1 / RFU, PPFIA1 / Fold change vs veh, PPFIA1 / RFU, MAT2A / Fold change vs veh, MAT2A / RFU, CCT5 / Fold change vs veh, CCT5 / RFU, WDR92 / Fold change vs veh, WDR92 / RFU, CUX1 / Fold change vs veh, CUX1 / RFU, TTC7A / Fold change vs veh, TTC7A / RFU, TMEM135 / Fold change vs veh, TMEM135 / RFU, DEPTOR / Fold change vs veh, DEPTOR / RFU, CPM / Fold change vs veh, CPM / RFU, DNAJB6 / Fold change vs veh, DNAJB6 / RFU, CACNA2D3 / Fold change vs veh, CACNA2D3 / RFU, DTX4 / Fold change vs veh, DTX4 / RFU, TFCP2 / Fold change vs veh, TFCP2 / RFU, GMCL1 /// GMCL1P1 / Fold change vs veh, GMCL1 /// GMCL1P1 / RFU, AEBP2 / Fold change vs veh, AEBP2 / RFU, SNHG1 /// SNORD22 /// SNORD25 /// SNORD26 /// SNORD27 /// SNORD28 /// SNORD29 /// SNORD31 / Fold change vs veh, SNHG1 /// SNORD22 /// SNORD25 /// SNORD26 /// SNORD27 /// SNORD28 /// SNORD29 /// SNORD31 / Fold change (Aza/veh), C12orf56 (ProbeSet 11735607_a_at) / Fold change (ACY-1035/veh), C12orf56 (ProbeSet 11735607_a_at) / Fold change (Aza/veh), FGFR1OP (ProbeSet 11751329_s_at) / Fold change (ACY-1035/veh), FGFR1OP (ProbeSet 11751329_s_at) / Fold change (Aza/veh), VPS36 (ProbeSet 11739960_a_at) / Fold change (ACY-1035/veh), VPS36 (ProbeSet 11739960_a_at) / RFU SYPL1 (11715823_x_at) / Fold change /veh SYPL1 (11715823_x_at) / RFU IGFBP7 (11715501_s_at) / Fold change /veh IGFBP7 (11715501_s_at) / RFU REEP3 (11722064_at) / Fold change /veh REEP3 (11722064_at) / RFU IGLL1 (11728026_x_at) / Fold change /veh IGLL1 (11728026_x_at): dose or concentration left out as unconfirmed
Details: MV-4-11 cells, 48 hours

Nc1ncn([C@@H]2O[C@H](CO)[C@@H](O)[C@H]2O)c(=O)n1 [azacitidine]
Fold change /veh LOC100653217 /// NTM (11731650_a_at): 1.16

From paper PMC5218480 (PLoS ONE, 2017)
